Results from patent US8883170B2 (priority 2008, dated 2014).
Where two headings read alike, the source gives them in different places.

Key:
spleen cells = experiment: Immunogenicity study with rHA: lymphoproliferation of restimulated spleen cells (3H-TdR incorporation); type: in vivo, BALB/c mice; conditions: mice immunized with compound 100 μg + rHA 5 μg; for Lymphoproliferation Con A: restimulated with concanavalin A 4 days; for Lymphoproliferation Medium: restimulated with medium (background) 4 days; for Lymphoproliferation rHA: restimulated with rHA 4 days
BALB/c mice = conditions: for overall toxicity conclusion: acute toxicity study in mice; for 7-Day Survival Males: male mice; for observations in treated animals: mice
[1] = tested on: recombinant hemagglutinin antigen (rHA) of influenza A; type: in vivo; conditions: compound 100 μg + rHA 5 μg; for Anti-rHA Titer IgG1 / Anti-rHA Titer IgG2a / Anti-rHA Titer IgG2b: s.c. Days 1 and 22, serum Day 43; for Anti-rHA Titer Total IgG: s.c. Days 1 and 22, serum Day 43, BALB/c mice
humans = conditions: in humans; cited from earlier work
[2] = single s.c. dose 250 μg, female mice
[3] = single s.c. dose 500 μg, female mice
[4] = single s.c. dose 1 mg, female mice
[5] = single s.c. dose 2 mg, female mice
[6] = single s.c. dose 4 mg in DMSO, female mice

CCCCCCCCCCCCNC(=O)C12CCC(C)(C)CC1C1=CCC3C4(C)CCC(O)C(C)(C=O)C4CCC3(C)C1(C)CC2 (stereo not shown) [Dodecyl genin, dodecylamide derivative of gypsogenin]
Lymphoproliferation Con A (spleen cells): 278,393 | Lymphoproliferation Medium (spleen cells): 772 | Lymphoproliferation rHA (spleen cells): 30,402 | overall toxicity conclusion (BALB/c mice): general lack of toxicity | 7-Day Survival Females (BALB/c mice; [2]): 100% | 7-Day Survival Males (BALB/c mice; single s.c. dose 250 μg): 100% | 7-Day Survival Females (BALB/c mice; [3]): 100% | 7-Day Survival Males (BALB/c mice; single s.c. dose 500 μg): 100% | 7-Day Survival Females (BALB/c mice; [4]): 100% | 7-Day Survival Males (BALB/c mice; single s.c. dose 1 mg): 100% | 7-Day Survival Females (BALB/c mice; [5]): 100% | 7-Day Survival Males (BALB/c mice; single s.c. dose 2 mg): 100% | 7-Day Survival Females (BALB/c mice; [6]): 100% | 7-Day Survival Males (BALB/c mice; single s.c. dose 4 mg in DMSO): 100% | observations in treated animals (BALB/c mice; single s.c. injection): lethargy, hair loss, and skin irritation at the injection site | Anti-rHA Titer IgG1 [1]: 20,984 | Anti-rHA Titer IgG2a [1]: 6600 | Anti-rHA Titer IgG2b [1]: 1466 | Anti-rHA Titer Total IgG [1]: 3418

CC1(C)CC[C@]2(C(=O)O)CC[C@]3(C)C(=CC[C@@H]4[C@@]5(C)CC[C@H](O)[C@@](C)(C=O)[C@@H]5CC[C@]43C)[C@@H]2C1 [Gypsogenin, gypsogenin, reference compound]
Lymphoproliferation Con A (spleen cells): 321,750 | Lymphoproliferation Medium (spleen cells): 356 | Lymphoproliferation rHA (spleen cells): 8507 | overall toxicity conclusion (BALB/c mice): general lack of toxicity | 7-Day Survival Females (BALB/c mice; [2]): 100% | 7-Day Survival Males (BALB/c mice; single s.c. dose 250 μg): 100% | 7-Day Survival Females (BALB/c mice; [3]): 100% | 7-Day Survival Males (BALB/c mice; single s.c. dose 500 μg): 100% | 7-Day Survival Females (BALB/c mice; [4]): 100% | 7-Day Survival Males (BALB/c mice; single s.c. dose 1 mg): 100% | 7-Day Survival Females (BALB/c mice; [5]): 100% | 7-Day Survival Males (BALB/c mice; single s.c. dose 2 mg): 100% | 7-Day Survival Females (BALB/c mice; [6]): 100% | 7-Day Survival Males (BALB/c mice; single s.c. dose 4 mg in DMSO): 100% | observations in treated animals (BALB/c mice; single s.c. injection): lethargy, hair loss, and skin irritation at the injection site | Anti-rHA Titer IgG1 [1]: 3220 | Anti-rHA Titer IgG2a [1]: 348 | Anti-rHA Titer IgG2b [1]: 1118 | Anti-rHA Titer Total IgG [1]: 1136 | stability on storage (TLC, purity checked periodically) (kept in cold (below −4° C.), 1 year): no change was observed | stability on storage (TLC) (room temperature storage): decomposition was seen

CCCCCCCCCCCCNC(=O)[C@]12CCC(C)(C)C[C@H]1C1=CCC3[C@@]4(C)CC[C@H](OC5OC(CO)C(O)C(O)C5O)[C@@](C)(C=O)C4CC[C@@]3(C)[C@]1(C)CC2 (stereo partly shown) [Saponin 1]
Lymphoproliferation Con A (spleen cells): 232,769 | Lymphoproliferation Medium (spleen cells): 268 | Lymphoproliferation rHA (spleen cells): 3696 | overall toxicity conclusion (BALB/c mice): general lack of toxicity | 7-Day Survival Females (BALB/c mice; [2]): 100% | 7-Day Survival Males (BALB/c mice; single s.c. dose 250 μg): 100% | 7-Day Survival Females (BALB/c mice; [3]): 100% | 7-Day Survival Males (BALB/c mice; single s.c. dose 500 μg): 100% | 7-Day Survival Females (BALB/c mice; [4]): 100% | 7-Day Survival Males (BALB/c mice; single s.c. dose 1 mg): 100% | 7-Day Survival Females (BALB/c mice; [5]): 80% | 7-Day Survival Males (BALB/c mice; single s.c. dose 2 mg): 100% | 7-Day Survival Females (BALB/c mice; [6]): 80% | 7-Day Survival Males (BALB/c mice; single s.c. dose 4 mg in DMSO): 100% | maximum tolerated dose (MTD) for females (BALB/c mice; single s.c. injection, female mice): 1 mg | observations in treated animals (BALB/c mice; single s.c. injection): lethargy, hair loss, and skin irritation at the injection site | Anti-rHA Titer IgG1 [1]: 29,100 | Anti-rHA Titer IgG2a [1]: 446 | Anti-rHA Titer IgG2b [1]: 2008 | Anti-rHA Titer Total IgG [1]: 5130

QS-21
dose associated with significant local reactions (humans): ≥ 200 µg
